Assay: xn = mol fraction of the nth substance listed
Settings: Constant-volume piezometry

CCCCC [pentane] + CCCO
Liquid
Settings | mass density [kg/m3]
305.05 K, x1 = 0.8 | 631.08
312.65 K, x1 = 0.8 | 623.57
317.85 K, x1 = 0.5 | 663.63
324.25 K, x1 = 0.8 | 611.04
334.25 K, x1 = 0.8 | 601.01
351.05 K, x1 = 0.5 | 631.49
353.55 K, x1 = 0.8 | 575.9
368.45 K, x1 = 0.5 | 611.87
372.15 K, x1 = 0.8 | 553.38
381.85 K, x1 = 0.2 | 663.76
383.55 K, x1 = 0.5 | 592.03
394.65 K, x1 = 0.8 | 524.7
396.15 K, x1 = 0.2 | 640.78
410.15 K, x1 = 0.8 | 499.43
410.75 K, x1 = 0.5 | 551.97
415.75 K, x1 = 0.2 | 618.67
425.55 K, x1 = 0.8 | 469.31
429.15 K, x1 = 0.2 | 598.54
431.15 K, x1 = 0.5 | 522.22

Settings | mass density [kg/m3]
308.15 K, 2402 kPa, Liquid, x1 = 0.8 | 630.94
313.15 K, 157 kPa, Liquid, x1 = 0.8 | 623.55
313.15 K, 6022 kPa, Liquid, x1 = 0.8 | 630.7
314.15 K, 765 kPa, Liquid, x1 = 0.8 | 623.51
318.15 K, 3615 kPa, Liquid, x1 = 0.8 | 623.33
323.15 K, 3447 kPa, Liquid, x1 = 0.5 | 663.38
323.15 K, 7107 kPa, Liquid, x1 = 0.8 | 623.1
323.15 K, 13373 kPa, Liquid, x1 = 0.8 | 630.24
325.15 K, 801 kPa, Liquid, x1 = 0.8 | 611.01
333.15 K, 5935 kPa, Liquid, x1 = 0.8 | 610.66
333.15 K, 9686 kPa, Liquid, x1 = 0.5 | 662.92
333.15 K, 14195 kPa, Liquid, x1 = 0.8 | 622.65
333.15 K, 20785 kPa, Liquid, x1 = 0.8 | 629.77
335.15 K, 769 kPa, Liquid, x1 = 0.8 | 600.98
338.15 K, 2550 kPa, Liquid, x1 = 0.8 | 600.85
343.15 K, 5592 kPa, Liquid, x1 = 0.8 | 600.65
343.15 K, 12414 kPa, Liquid, x1 = 0.8 | 610.23
343.15 K, 16000 kPa, Liquid, x1 = 0.5 | 662.46
343.15 K, 21183 kPa, Liquid, x1 = 0.8 | 622.2
343.15 K, 28234 kPa, Liquid, x1 = 0.8 | 629.31
351.15 K, 441 kPa, Liquid, x1 = 0.5 | 631.49
353.15 K, 1647 kPa, Liquid, x1 = 0.5 | 631.4
353.15 K, 11601 kPa, Liquid, x1 = 0.8 | 600.23
353.15 K, 18747 kPa, Liquid, x1 = 0.8 | 609.8
353.15 K, 22340 kPa, Liquid, x1 = 0.5 | 661.99
353.15 K, 28151 kPa, Liquid, x1 = 0.8 | 621.75
353.15 K, 35636 kPa, Liquid, x1 = 0.8 | 628.84
355.15 K, 1219 kPa, Liquid, x1 = 0.8 | 575.84
358.15 K, 2713 kPa, Liquid, x1 = 0.8 | 575.73
363.15 K, 5237 kPa, Liquid, x1 = 0.8 | 575.54
363.15 K, 7726 kPa, Liquid, x1 = 0.5 | 630.97
363.15 K, 17738 kPa, Liquid, x1 = 0.8 | 599.81
363.15 K, 25314 kPa, Liquid, x1 = 0.8 | 609.37
363.15 K, 28606 kPa, Liquid, x1 = 0.5 | 661.53
363.15 K, 35183 kPa, Liquid, x1 = 0.8 | 621.29
363.15 K, 42979 kPa, Liquid, x1 = 0.8 | 628.38
372.65 K, 854 kPa, Liquid, x1 = 0.8 | 553.36
373.15 K, 1058 kPa, Liquid, x1 = 0.8 | 553.35
373.15 K, 3137 kPa, Liquid, x1 = 0.5 | 611.68
373.15 K, 10414 kPa, Liquid, x1 = 0.8 | 575.16
373.15 K, 13490 kPa, Liquid, x1 = 0.5 | 630.54
373.15 K, 23787 kPa, Liquid, x1 = 0.8 | 599.4
373.15 K, 31687 kPa, Liquid, x1 = 0.8 | 608.94
373.15 K, 34882 kPa, Liquid, x1 = 0.5 | 661.07
373.15 K, 42247 kPa, Liquid, x1 = 0.8 | 620.84
378.15 K, 5874 kPa, Liquid, x1 = 0.5 | 611.47
383.15 K, 1487 kPa, Liquid, x1 = 0.2 | 663.69
383.15 K, 4567 kPa, Liquid, x1 = 0.5 | 602.79
383.15 K, 5590 kPa, Liquid, x1 = 0.8 | 552.99
383.15 K, 8687 kPa, Liquid, x1 = 0.5 | 611.26
383.15 K, 15678 kPa, Liquid, x1 = 0.8 | 574.78
383.15 K, 19194 kPa, Liquid, x1 = 0.5 | 630.11
383.15 K, 29885 kPa, Liquid, x1 = 0.8 | 598.99
383.15 K, 38107 kPa, Liquid, x1 = 0.8 | 608.51
384.15 K, 1047 kPa, Liquid, x1 = 0.5 | 592.01
393.15 K, 941 kPa, Liquid, x1 = 0.5 | 579.06
393.15 K, 5707 kPa, Liquid, x1 = 0.5 | 591.66
393.15 K, 8491 kPa, Liquid, x1 = 0.2 | 663.21
393.15 K, 10012 kPa, Liquid, x1 = 0.5 | 602.39
393.15 K, 10151 kPa, Liquid, x1 = 0.8 | 552.64
393.15 K, 14096 kPa, Liquid, x1 = 0.5 | 610.86
393.15 K, 20747 kPa, Liquid, x1 = 0.8 | 574.4
393.15 K, 25038 kPa, Liquid, x1 = 0.5 | 629.68
393.15 K, 36012 kPa, Liquid, x1 = 0.8 | 598.57
393.15 K, 44637 kPa, Liquid, x1 = 0.8 | 608.08
395.15 K, 1157 kPa, Liquid, x1 = 0.8 | 524.69
398.15 K, 2324 kPa, Liquid, x1 = 0.8 | 524.59
403.15 K, 905 kPa, Gas, x1 = 0.8 | 22.65
403.15 K, 4215 kPa, Liquid, x1 = 0.8 | 524.43
403.15 K, 4306 kPa, Liquid, x1 = 0.2 | 640.49
403.15 K, 5622 kPa, Liquid, x1 = 0.5 | 578.69
403.15 K, 10647 kPa, Liquid, x1 = 0.5 | 591.27
403.15 K, 14687 kPa, Liquid, x1 = 0.8 | 552.29
403.15 K, 15313 kPa, Liquid, x1 = 0.2 | 662.74
403.15 K, 15471 kPa, Liquid, x1 = 0.5 | 601.98
403.15 K, 19586 kPa, Liquid, x1 = 0.5 | 610.45
403.15 K, 25962 kPa, Liquid, x1 = 0.8 | 574.02
403.15 K, 30841 kPa, Liquid, x1 = 0.5 | 629.25
403.15 K, 42147 kPa, Liquid, x1 = 0.8 | 598.16
413.15 K, 944 kPa, Gas, x1 = 0.8 | 22.64
413.15 K, 2137 kPa, Liquid, x1 = 0.5 | 551.89
413.15 K, 2268 kPa, Liquid, x1 = 0.8 | 499.34
413.15 K, 7884 kPa, Liquid, x1 = 0.8 | 524.12
413.15 K, 10313 kPa, Liquid, x1 = 0.5 | 578.32
413.15 K, 10612 kPa, Liquid, x1 = 0.2 | 640.04
413.15 K, 15843 kPa, Liquid, x1 = 0.5 | 590.88
413.15 K, 19245 kPa, Liquid, x1 = 0.8 | 551.94
413.15 K, 21025 kPa, Liquid, x1 = 0.5 | 601.58
413.15 K, 22059 kPa, Liquid, x1 = 0.2 | 662.26
413.15 K, 24988 kPa, Liquid, x1 = 0.5 | 610.04
413.15 K, 31136 kPa, Liquid, x1 = 0.8 | 573.65
413.15 K, 36585 kPa, Liquid, x1 = 0.5 | 628.82
414.15 K, 712 kPa, Gas, x1 = 0.5 | 15.6
415.15 K, 715 kPa, Gas, x1 = 0.5 | 15.6
416.15 K, 1229 kPa, Liquid, x1 = 0.2 | 618.66
416.15 K, 1374 kPa, Gas, x1 = 0.8 | 36.88
423.15 K, 737 kPa, Gas, x1 = 0.5 | 15.59
423.15 K, 982 kPa, Gas, x1 = 0.8 | 22.63
423.15 K, 1418 kPa, Gas, x1 = 0.8 | 36.86
423.15 K, 4884 kPa, Liquid, x1 = 0.2 | 618.37
423.15 K, 5404 kPa, Liquid, x1 = 0.8 | 499.05
423.15 K, 5815 kPa, Liquid, x1 = 0.5 | 551.55
423.15 K, 11608 kPa, Liquid, x1 = 0.8 | 523.8
423.15 K, 14921 kPa, Liquid, x1 = 0.5 | 577.95
423.15 K, 16915 kPa, Liquid, x1 = 0.2 | 639.59
423.15 K, 20842 kPa, Liquid, x1 = 0.5 | 590.5
423.15 K, 23598 kPa, Liquid, x1 = 0.8 | 551.59
423.15 K, 26392 kPa, Liquid, x1 = 0.5 | 601.18
423.15 K, 28950 kPa, Liquid, x1 = 0.2 | 661.79
423.15 K, 30447 kPa, Liquid, x1 = 0.5 | 609.63
423.15 K, 36411 kPa, Liquid, x1 = 0.8 | 573.27
426.15 K, 1900 kPa, Liquid, x1 = 0.8 | 469.29
432.15 K, 2018 kPa, Liquid, x1 = 0.5 | 522.19
433.15 K, 760 kPa, Gas, x1 = 0.5 | 15.59
433.15 K, 1023 kPa, Gas, x1 = 0.8 | 22.62
433.15 K, 1472 kPa, Gas, x1 = 0.8 | 36.85
433.15 K, 2403 kPa, Liquid, x1 = 0.5 | 522.16
433.15 K, 3158 kPa, Liquid, x1 = 0.2 | 598.39
433.15 K, 3619 kPa, Liquid, x1 = 0.8 | 469.11
433.15 K, 8493 kPa, Liquid, x1 = 0.8 | 498.76
433.15 K, 9460 kPa, Liquid, x1 = 0.5 | 551.22
433.15 K, 10196 kPa, Liquid, x1 = 0.2 | 617.96
433.15 K, 15352 kPa, Liquid, x1 = 0.8 | 523.48
433.15 K, 19645 kPa, Liquid, x1 = 0.5 | 577.58
433.15 K, 23135 kPa, Liquid, x1 = 0.2 | 639.15
433.15 K, 26095 kPa, Liquid, x1 = 0.5 | 590.11
433.15 K, 28096 kPa, Liquid, x1 = 0.8 | 551.24
433.15 K, 31893 kPa, Liquid, x1 = 0.5 | 600.78
